Among the data in US8574563B2 (Bristol-Myers Squibb Company, priority 2006, dated 2013) are EC50 values, retold here.

As a reminder, the EC50 is the concentration at which the effect is half-maximal.

Molecules are shown by their SMILES.

The test system of this assay is HCV 1b-377-neo replicon cells. The assay is described as follows: HCV replicon assay, HCV 1b-377-neo replicon cells (1b FRET). In kind it is cell-based, Hepatitis C virus genotype 1b. Particulars: Hepatitis C virus, HCV 1b-377-neo replicon cells; HCV 1b genotype; read-out: EC50 range against HCV 1b (Table 2, Range). The method, boiled down: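 FRET-based replicon assay in HCV 1b-377-neo cells, including a comparison line carrying the NS5A Y2065H mutation that confers resistance to a reference compound.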
Take `COC(=O)N[C@@H](Cc1ccc(OP(=O)(O)OC)cc1)C(=O)N1CCC[C@H]1c1ncc(-c2ccc(-c3ccc(-c4cnc([C@@H]5CCCN5C(=O)[C@@H](NC(=O)OC)[C@@H](C)OC)[nH]4)cc3)cc2)[nH]1` [cj-92, methyl ((1S,2R)-1-(((2S)-2-(5-(4′-(2-((2S)-1-(O-(hydroxy(methoxy)phosphoryl)-N-(methoxycarbonyl)-L-tyrosyl)-2-pyrrolidinyl)-1H-imidazol-5-yl)-4-biphenylyl)-1H-imidazol-2-yl)-1-pyrrolidinyl)carbonyl)-2-methoxypropyl)carbamate]: the EC50 lay within 1000 to 99000 pM.
To `COC(=O)N[C@H](C(=O)N1CCC[C@H]1c1ncc(-c2ccc(-c3ccc(-c4cnc([C@@H]5CCCN5C(=O)[C@H]5CCCC[C@H]5NC(=O)OC)[nH]4)cc3)cc2)[nH]1)C(C)C` [cj-93, methyl ((1S)-1-(((2S)-2-(5-(4′-(2-((2S)-1-(((1S,2R)-2-((methoxycarbonyl)amino)cyclohexyl)carbonyl)-2-pyrrolidinyl)-1H-imidazol-5-yl)-4-biphenylyl)-1H-imidazol-2-yl)-1-pyrrolidinyl)carbonyl)-2-methylpropyl)carbamate] belongs 1 to 999 pM; to `CCN(CC)[C@@H](C(=O)N1CCC[C@H]1c1ncc(-c2ccc(-c3ccc(-c4cnc([C@@H]5CCCN5C(=O)[C@H]5CCCC[C@H]5NC(=O)OC)[nH]4)cc3)cc2)[nH]1)c1ccccc1` [cj-94, methyl ((1R,2S)-2-(((2S)-2-(5-(4′-(2-((2S)-1-((2R)-2-(diethylamino)-2-phenylacetyl)-2-pyrrolidinyl)-1H-imidazol-5-yl)-4-biphenylyl)-1H-imidazol-2-yl)-1-pyrrolidinyl)carbonyl)cyclohexyl)carbamate], 1 to 999 pM.
The value for `COC(=O)N[C@@H](C(=O)N1CCC[C@H]1c1ncc(-c2ccc(-c3ccc(-c4cnc([C@@H]5CCCN5C(=O)[C@H]5CCCC[C@H]5NC(=O)OC)[nH]4)cc3)cc2)[nH]1)c1ccccc1` [cj-95, methyl ((1R)-2-((2S)-2-(5-(4′-(2-((2S)-1-(((1S,2R)-2-((methoxycarbonyl)amino)cyclohexyl)carbonyl)-2-pyrrolidinyl)-1H-imidazol-5-yl)-4-biphenylyl)-1H-imidazol-2-yl)-1-pyrrolidinyl)-2-oxo-1-phenylethyl)carbamate] was 1 to 999 pM.
Regarding `COC(=O)N[C@@H](C)C(=O)N1CCC[C@H]1c1ncc(-c2ccc(-c3ccc(-c4cnc([C@@H]5CCCN5C(=O)[C@H]5CCCC[C@H]5NC(=O)OC)[nH]4)cc3)cc2)[nH]1` [cj-96, methyl ((1R,2S)-2-(((2S)-2-(5-(4′-(2-((2S)-1-(N-(methoxycarbonyl)-L-alanyl)-2-pyrrolidinyl)-1H-imidazol-5-yl)-4-biphenylyl)-1H-imidazol-2-yl)-1-pyrrolidinyl)carbonyl)cyclohexyl)carbamate], the EC50 lay within 1 to 999 pM.
To `CCN(CC)[C@H]1CC[C@@H](C(=O)N2CCC[C@H]2c2ncc(-c3ccc(-c4ccc(-c5cnc([C@@H]6CCCN6C(=O)[C@H]6CCCC[C@H]6NC(=O)OC)[nH]5)cc4)cc3)[nH]2)CC1` [cj-97, methyl ((1R,2S)-2-(((2S)-2-(5-(4′-(2-((2S)-1-((cis-4-(diethylamino)cyclohexyl)carbonyl)-2-pyrrolidinyl)-1H-imidazol-5-yl)-4-biphenylyl)-1H-imidazol-2-yl)-1-pyrrolidinyl)carbonyl)cyclohexyl)carbamate] belongs 1 to 999 pM; to `COC(=O)N[C@@H]1CCCC[C@@H]1C(=O)N1CCC[C@H]1c1ncc(-c2ccc(-c3ccc(-c4cnc([C@@H]5CCCN5C(=O)[C@H](NC(C)=O)c5ccccc5)[nH]4)cc3)cc2)[nH]1` [cj-98, methyl ((1R,2S)-2-(((2S)-2-(5-(4′-(2-((2S)-1-((2R)-2-acetamido-2-phenylacetyl)-2-pyrrolidinyl)-1H-imidazol-5-yl)-4-biphenylyl)-1H-imidazol-2-yl)-1-pyrrolidinyl)carbonyl)cyclohexyl)carbamate], 1 to 999 pM.
On to `COC(=O)N[C@@H](Cc1c[nH]c2ccccc12)C(=O)N1CCC[C@H]1c1ncc(-c2ccc(-c3ccc(-c4cnc([C@@H]5CCCN5C(=O)[C@@H](NC(=O)OC)C(C)C)[nH]4)cc3)cc2)[nH]1` [cj-99, methyl ((1S)-1-(((2S)-2-(5-(4′-(2-((2S)-1-((2S)-3-(1H-indol-3-yl)-2-((methoxycarbonyl)amino)propanoyl)-2-pyrrolidinyl)-1H-imidazol-5-yl)-4-biphenylyl)-1H-imidazol-2-yl)-1-pyrrolidinyl)carbonyl)-2-methylpropyl)carbamate], for which the concentration giving a half-maximal response (EC50) was 1 to 999 pM.
To `COC(=O)N[C@@H](Cc1c[nH]c2ccccc12)C(=O)N1CCC[C@H]1c1ncc(-c2ccc(-c3ccc(-c4cnc([C@@H]5CCCN5C(=O)[C@@H](NC(=O)OC)[C@@H](C)OC)[nH]4)cc3)cc2)[nH]1` [cj-100, methyl ((1S)-1-(1H-indol-3-ylmethyl)-2-((2S)-2-(5-(4′-(2-((2S)-1-((2S,3R)-3-methoxy-2-((methoxycarbonyl)amino)butanoyl)-2-pyrrolidinyl)-1H-imidazol-5-yl)-4-biphenylyl)-1H-imidazol-2-yl)-1-pyrrolidinyl)-2-oxoethyl)carbamate] belongs 1 to 999 pM.
As to `CCN(CC)[C@@H](C(=O)N1CCC[C@H]1c1ncc(-c2ccc(-c3ccc(-c4cnc([C@@H]5CCCN5C(=O)[C@H](Cc5c[nH]c6ccccc56)NC(=O)OC)[nH]4)cc3)cc2)[nH]1)c1ccccc1` [cj-101, methyl ((1S)-2-((2S)-2-(5-(4′-(2-((2S)-1-((2R)-2-(diethylamino)-2-phenylacetyl)-2-pyrrolidinyl)-1H-imidazol-5-yl)-4-biphenylyl)-1H-imidazol-2-yl)-1-pyrrolidinyl)-1-(1H-indol-3-ylmethyl)-2-oxoethyl)carbamate], the EC50 lay within 1 to 999 pM.
On to `COC(=O)N[C@@H](C)C(=O)N1CCC[C@H]1c1ncc(-c2ccc(-c3ccc(-c4cnc([C@@H]5CCCN5C(=O)[C@H](Cc5c[nH]c6ccccc56)NC(=O)OC)[nH]4)cc3)cc2)[nH]1` [cj-102, methyl ((1S)-2-((2S)-2-(5-(4′-(2-((2S)-1-((2S)-3-(1H-indol-3-yl)-2-((methoxycarbonyl)amino)propanoyl)-2-pyrrolidinyl)-1H-imidazol-5-yl)-4-biphenylyl)-1H-imidazol-2-yl)-1-pyrrolidinyl)-1-methyl-2-oxoethyl)carbamate], for which the EC50 was 1 to 999 pM.
As to `COC(=O)N[C@@H](Cc1ccc(CN)cc1)C(=O)N1CCC[C@H]1c1ncc(-c2ccc(-c3ccc(-c4cnc([C@@H]5CCCN5C(=O)[C@@H](NC(=O)OC)C(C)C)[nH]4)cc3)cc2)[nH]1` [cj-103, methyl ((1S)-1-(4-(aminomethyl)benzyl)-2-((2S)-2-(5-(4′-(2-((2S)-1-((2S)-2-((methoxycarbonyl)amino)-3-methylbutanoyl)-2-pyrrolidinyl)-1H-imidazol-5-yl)-4-biphenylyl)-1H-imidazol-2-yl)-1-pyrrolidinyl)-2-oxoethyl)carbamate], the EC50 is 1 to 999 pM.
To `COC(=O)N[C@@H](Cc1ccc(OCc2ccccc2)cc1)C(=O)N1CCC[C@H]1c1ncc(-c2ccc(-c3ccc(-c4cnc([C@@H]5CCCN5C(=O)[C@@H](NC(=O)OC)C(C)C)[nH]4)cc3)cc2)[nH]1` [cj-104, methyl ((1S)-1-(((2S)-2-(5-(4′-(2-((2S)-1-(O-benzyl-N-(methoxycarbonyl)-L-tyrosyl)-2-pyrrolidinyl)-1H-imidazol-5-yl)-4-biphenylyl)-1H-imidazol-2-yl)-1-pyrrolidinyl)carbonyl)-2-methylpropyl)carbamate] belongs 1 to 999 pM.
